# Results as given in patent US20210338846A1, “COMPETITIVE PROSTATE-SPECIFIC MEMBRANE ANTIGEN (PSMA) BINDING AGENTS FOR REDUCTION OF NON-TARGET ORGAN UPTAKE OF RADIOLABELED PSMA INHIBITORS FOR PSMA POSITIVE TUMOR IMAGING AND RADIOPHARMACEUTICAL THERAPY” (The Johns Hopkins University, priority 2018, published 2021).
# Like-named read-outs stand apart in the source and are kept apart here.
# Legend:
# [1] = test system: PSMA+ PC-3 PiP and PSMA− PC-3 flu tumors; format: in vivo; conditions: early time points
# [2] = test system: PSMA+ PC-3 PiP and PSMA− PC-3 flu tumors
# [3] = 1 h, co-injection 0.5 nmole YC-I-27
# [4] = 4 h, co-injection 0.5 nmole YC-I-27
# [5] = 24 h, co-injection 0.5 nmole YC-I-27
smiles,measurement,setting,value
O=C(O)CC[C@H](NC(=O)N[C@@H](CCCCN(Cc1ccc(I)cc1)C(=O)CCCCNC(=O)CN1CCN(CC(=O)O)CCN(CC(=O)O)CCN(CC(=O)O)CC1)C(=O)O)C(=O)O [VK-02-90],"effect of competing inhibitor on uptake of [125I]VK-02-90-Lu in kidneys, salivary glands and lacrimal glands",[1],effective CI
O=C(O)CC[C@H](NC(=O)N[C@@H](CCCCN(Cc1ccc([125I])cc1)C(=O)CCCCNC(=O)CN1CCN(CC(=O)O)CCN(CC(=O)O)CCN(CC(=O)O)CC1)C(=O)O)C(=O)O [[^125I]VK-02-90],Biodistribution: Blood,"[2]; 1 h, No CI",1.1 ± 0.3 % injected dose/gram
same,Biodistribution: Flu tumor,"[2]; 1 h, No CI",1.4 ± 0.6 % injected dose/gram
same,Biodistribution: Lacrimal gland,"[2]; 1 h, No CI",17.4 ± 6.0 % injected dose/gram
same,Biodistribution: PiP tumor,"[2]; 1 h, No CI",58 ± 14 % injected dose/gram
same,Biodistribution: Salivary gland,"[2]; 1 h, No CI",5.1 ± 3.4 % injected dose/gram
same,Biodistribution: kidneys,"[2]; 1 h, No CI",194 ± 25 % injected dose/gram
same,Biodistribution: spleen,"[2]; 1 h, No CI",40 ± 16 % injected dose/gram
same,Biodistribution: stomach,"[2]; 1 h, No CI",1.1 ± 0.3 % injected dose/gram
same,Biodistribution: Blood,[2]; [3],0.45 ± 0.06 % injected dose/gram
same,Biodistribution: Flu tumor,[2]; [3],0.37 ± 0.05 % injected dose/gram
same,Biodistribution: Lacrimal gland,[2]; [3],0.75 ± 0.33 % injected dose/gram
same,Biodistribution: PiP tumor,[2]; [3],35 ± 10 % injected dose/gram
same,Biodistribution: Salivary gland,[2]; [3],0.46 ± 0.06 % injected dose/gram
same,Biodistribution: kidneys,[2]; [3],10.0 ± 1.1 % injected dose/gram
same,Biodistribution: spleen,[2]; [3],0.8 ± 0.14 % injected dose/gram
same,Biodistribution: stomach,[2]; [3],0.33 ± 0.07 % injected dose/gram
same,Biodistribution: thyroid,[2]; [3],0.5 ± 0.3 % injected dose/gram
same,Biodistribution: Blood,"[2]; 4 h, No CI",0.2 ± 0.03 % injected dose/gram
same,Biodistribution: Flu tumor,"[2]; 4 h, No CI",0.3 ± 0.1 % injected dose/gram
same,Biodistribution: Lacrimal gland,"[2]; 4 h, No CI",1.9 ± 0.5 % injected dose/gram
same,Biodistribution: PiP tumor,"[2]; 4 h, No CI",38 ± 13 % injected dose/gram
same,Biodistribution: Salivary gland,"[2]; 4 h, No CI",0.7 ± 0.2 % injected dose/gram
same,Biodistribution: kidneys,"[2]; 4 h, No CI",162 ± 3.5 % injected dose/gram
same,Biodistribution: spleen,"[2]; 4 h, No CI",4.7 ± 1.2 % injected dose/gram
same,Biodistribution: stomach,"[2]; 4 h, No CI",0.4 ± 0.2 % injected dose/gram
same,Biodistribution: Blood,[2]; [4],0.02 ± 0.004 % injected dose/gram
same,Biodistribution: Flu tumor,[2]; [4],0.7 ± 0.01 % injected dose/gram
same,Biodistribution: Lacrimal gland,[2]; [4],0.14 ± 0.08 % injected dose/gram
same,Biodistribution: PiP tumor,[2]; [4],35 ± 5.0 % injected dose/gram
same,Biodistribution: Salivary gland,[2]; [4],0.08 ± 0.04 % injected dose/gram
same,Biodistribution: kidneys,[2]; [4],2.2 ± 0.3 % injected dose/gram
same,Biodistribution: spleen,[2]; [4],0.2 ± 0.1 % injected dose/gram
same,Biodistribution: stomach,[2]; [4],0.2 ± 0.07 % injected dose/gram
same,Biodistribution: thyroid,[2]; [4],0.14 ± 0.1 % injected dose/gram
same,Biodistribution: Blood,"[2]; 24 h, No CI",0.02 ± 0.01 % injected dose/gram
same,Biodistribution: Flu tumor,"[2]; 24 h, No CI",0.04 ± 0.02 % injected dose/gram
same,Biodistribution: Lacrimal gland,"[2]; 24 h, No CI",0.5 ± 0.2 % injected dose/gram
same,Biodistribution: PiP tumor,"[2]; 24 h, No CI",51 ± 7 % injected dose/gram
same,Biodistribution: Salivary gland,"[2]; 24 h, No CI",0.3 ± 0.3 % injected dose/gram
same,Biodistribution: kidneys,"[2]; 24 h, No CI",31 ± 14 % injected dose/gram
same,Biodistribution: spleen,"[2]; 24 h, No CI",0.7 ± 0.4 % injected dose/gram
same,Biodistribution: stomach,"[2]; 24 h, No CI",0.05 ± 0.03 % injected dose/gram
same,Biodistribution: Blood,[2]; [5],0.001 ± 0.001 % injected dose/gram
same,Biodistribution: Flu tumor,[2]; [5],0.02 ± 0.01 % injected dose/gram
same,Biodistribution: Lacrimal gland,[2]; [5],0.02 ± 0.04 % injected dose/gram
same,Biodistribution: PiP tumor,[2]; [5],33 ± 6 % injected dose/gram
same,Biodistribution: Salivary gland,[2]; [5],0.02 ± 0.01 % injected dose/gram
same,Biodistribution: kidneys,[2]; [5],0.3 ± 0.03 % injected dose/gram
same,Biodistribution: spleen,[2]; [5],0.05 ± 0.04 % injected dose/gram
same,Biodistribution: stomach,[2]; [5],0.06 ± 0.02 % injected dose/gram
same,Biodistribution: thyroid,[2]; [5],0.04 ± 0.08 % injected dose/gram
same,PSMA+ tumor uptake (in words),"[2]; Tables 1, 2, and 3",high PSMA+ tumor uptake
same,kidney uptake (in words),"[2]; Tables 1, 2, and 3",high initial kidney uptake which clears over time
O=C([O-])CN1CCN(CC(=O)[O-])CCN(CC(=O)NCCCCC(=O)N(CCCC[C@H](NC(=O)N[C@@H](CCC(=O)O)C(=O)O)C(=O)O)Cc2ccc([211At])cc2)CCN(CC(=O)[O-])CC1.[Lu+3] [[^211At]VK-02-90-Lu],Biodistribution: Blood,"[2]; 1 h, No CI",0.8 ± 0.2 % injected dose/gram
same,Biodistribution: Flu tumor,"[2]; 1 h, No CI",0.4 ± 0.2 % injected dose/gram
same,Biodistribution: Lacrimal gland,"[2]; 1 h, No CI",0.8 ± 0.9 % injected dose/gram
same,Biodistribution: PiP tumor,"[2]; 1 h, No CI",31 ± 5 % injected dose/gram
same,Biodistribution: Salivary gland,"[2]; 1 h, No CI",0.5 ± 0.2 % injected dose/gram
same,Biodistribution: kidneys,"[2]; 1 h, No CI",90 ± 43 % injected dose/gram
same,Biodistribution: spleen,"[2]; 1 h, No CI",2.5 ± 0.9 % injected dose/gram
same,Biodistribution: stomach,"[2]; 1 h, No CI",0.4 ± 0.1 % injected dose/gram
same,Biodistribution: Blood,[2]; [3],0.5 ± 0.1 % injected dose/gram
same,Biodistribution: Flu tumor,[2]; [3],0.4 ± 0.1 % injected dose/gram
same,Biodistribution: Lacrimal gland,[2]; [3],0 % injected dose/gram
same,Biodistribution: PiP tumor,[2]; [3],25 ± 4 % injected dose/gram
same,Biodistribution: Salivary gland,[2]; [3],0.4 ± 0.2 % injected dose/gram
same,Biodistribution: kidneys,[2]; [3],2.2 ± 0.6 % injected dose/gram
same,Biodistribution: spleen,[2]; [3],0.3 ± 0.4 % injected dose/gram
same,Biodistribution: stomach,[2]; [3],0.4 ± 0.2 % injected dose/gram
same,Biodistribution: Blood,"[2]; 4 h, No CI",0.1 ± 0.03 % injected dose/gram
same,Biodistribution: Flu tumor,"[2]; 4 h, No CI",0.1 ± 0.1 % injected dose/gram
same,Biodistribution: Lacrimal gland,"[2]; 4 h, No CI",0.3 ± 1.1 % injected dose/gram
same,Biodistribution: PiP tumor,"[2]; 4 h, No CI",17 ± 5 % injected dose/gram
same,Biodistribution: Salivary gland,"[2]; 4 h, No CI",0.2 ± 0.1 % injected dose/gram
same,Biodistribution: kidneys,"[2]; 4 h, No CI",2.1 ± 0.6 % injected dose/gram
same,Biodistribution: spleen,"[2]; 4 h, No CI",0 % injected dose/gram
same,Biodistribution: stomach,"[2]; 4 h, No CI",0.3 ± 0.2 % injected dose/gram
same,Biodistribution: Blood,[2]; [4],0.2 ± 0.1 % injected dose/gram
same,Biodistribution: Flu tumor,[2]; [4],0.0 ± 0.04 % injected dose/gram
same,Biodistribution: Lacrimal gland,[2]; [4],0 % injected dose/gram
same,Biodistribution: PiP tumor,[2]; [4],19 ± 5 % injected dose/gram
same,Biodistribution: Salivary gland,[2]; [4],0.3 ± 0.2 % injected dose/gram
same,Biodistribution: kidneys,[2]; [4],0.7 ± 0.1 % injected dose/gram
same,Biodistribution: spleen,[2]; [4],0.8 ± 0.5 % injected dose/gram
same,Biodistribution: stomach,[2]; [4],0.4 ± 0.05 % injected dose/gram
same,Biodistribution: Blood,"[2]; 24 h, No CI",0 % injected dose/gram
same,Biodistribution: Flu tumor,"[2]; 24 h, No CI",0 % injected dose/gram
same,Biodistribution: Lacrimal gland,"[2]; 24 h, No CI",0 % injected dose/gram
same,Biodistribution: PiP tumor,"[2]; 24 h, No CI",9.5 ± 1.0 % injected dose/gram
same,Biodistribution: Salivary gland,"[2]; 24 h, No CI",0 % injected dose/gram
same,Biodistribution: kidneys,"[2]; 24 h, No CI",0.02 ± 0.02 % injected dose/gram
same,Biodistribution: spleen,"[2]; 24 h, No CI",0 % injected dose/gram
same,Biodistribution: stomach,"[2]; 24 h, No CI",0 % injected dose/gram
same,Biodistribution: Blood,[2]; [5],0.03 ± 0.3 % injected dose/gram
same,Biodistribution: Flu tumor,[2]; [5],0.2 ± 0.3 % injected dose/gram
same,Biodistribution: Lacrimal gland,[2]; [5],0 % injected dose/gram
same,Biodistribution: PiP tumor,[2]; [5],18 ± 8 % injected dose/gram
same,Biodistribution: Salivary gland,[2]; [5],0 % injected dose/gram
same,Biodistribution: kidneys,[2]; [5],0.4 ± 0.5 % injected dose/gram
same,Biodistribution: spleen,[2]; [5],02.5 ± 4.3 % injected dose/gram
same,Biodistribution: stomach,[2]; [5],0.4 ± 0.7 % injected dose/gram
